The molecules below were run against T1, human PPARγ (Homo sapiens, UniProt P37231) (assay: Human PPARγ antagonist assay (luciferase reporter in transfected CV-1 cells)). Settings: CV-1 cells expressing human PPARγ and RXRα with reporter plasmid; pioglitazone 1 μM as stimulant; 24 hours; read-out: Human PPARγ antagonist activities, Inhibition IC50.
T1 construct: 1.6 kb of fragment of the prepared plasmid pGEMT-hPPARg2 including human PPARγ gene; expressed in transfected cells; host or cells: CV-1 cells, transient transfection with pCI-hPPARg2, pCI-hRXRa and the reporter pGL3-PPRE3-TK
T1 sequence (P37231 1-505): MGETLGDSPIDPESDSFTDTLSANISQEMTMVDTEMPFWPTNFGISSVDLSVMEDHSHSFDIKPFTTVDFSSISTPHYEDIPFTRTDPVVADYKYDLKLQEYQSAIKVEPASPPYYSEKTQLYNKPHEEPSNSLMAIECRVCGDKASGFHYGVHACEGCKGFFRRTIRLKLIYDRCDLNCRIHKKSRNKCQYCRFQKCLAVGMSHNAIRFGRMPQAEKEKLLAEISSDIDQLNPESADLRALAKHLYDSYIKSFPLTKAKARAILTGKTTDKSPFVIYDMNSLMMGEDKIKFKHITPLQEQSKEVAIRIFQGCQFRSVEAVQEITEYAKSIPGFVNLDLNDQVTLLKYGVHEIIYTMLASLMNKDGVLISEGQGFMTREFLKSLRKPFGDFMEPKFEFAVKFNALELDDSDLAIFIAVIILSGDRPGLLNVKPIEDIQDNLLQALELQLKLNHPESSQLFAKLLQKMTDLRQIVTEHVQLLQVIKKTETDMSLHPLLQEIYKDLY
T1 sequence (P19793 1-462 partner): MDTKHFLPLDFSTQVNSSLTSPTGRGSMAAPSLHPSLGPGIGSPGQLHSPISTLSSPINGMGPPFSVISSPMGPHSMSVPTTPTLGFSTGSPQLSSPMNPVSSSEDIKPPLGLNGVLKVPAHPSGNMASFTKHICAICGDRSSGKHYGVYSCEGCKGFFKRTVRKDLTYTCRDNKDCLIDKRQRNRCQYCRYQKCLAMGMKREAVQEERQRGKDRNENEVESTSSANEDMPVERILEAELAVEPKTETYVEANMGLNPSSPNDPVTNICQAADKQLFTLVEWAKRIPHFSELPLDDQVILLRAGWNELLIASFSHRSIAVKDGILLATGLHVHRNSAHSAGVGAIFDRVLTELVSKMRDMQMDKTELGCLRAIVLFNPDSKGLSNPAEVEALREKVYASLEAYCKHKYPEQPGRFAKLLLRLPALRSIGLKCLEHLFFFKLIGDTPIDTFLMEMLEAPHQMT
Type: cell-based
Method: CV-1 cells (96 well plate), where human PPARγ and RXRα has expressed in the transient transfection of reporter plasmid (see reference 5a) were washed once with PBS (100 μL/well), and then supplemented with 100 μL/well […], as well as pioglitazone (not limited to pioglitazone shown as an example, but may be any PPARγ agonist) at a final concentration of 1 μM as a stimulant were added, and incubated in a 5% CO2 incubator at 37° C. for 24 hours. After removing the medium, the CV-1 cells were washed once with PBS (100 μL/well), and supplemented with 60 μL/well of 1× Passive Lysis Buffer (manufactured by Promega Corporation). The CV-1 cells were incubated at room temperature for 30 minutes, stirred, and then by using Dual-Luciferase Reporter Assay System (manufactured by Promega Corporation), luciferase activities of firefly and renilla were measured using 1420 ARVO Multilabel Counter (manufactured by Wallac Oy). Also, the same experiments as that described above were respectively carried out for the cases where only the above-mentioned stimulants (100 nM, 1 μM, 10 μM) were used, where only the above-mentioned test compounds were used, or where neither was used (nonsupplemented), and luciferase activities of firefly and renilla were measured. Values corrected by dividing the firefly luciferase activities by the renilla luciferase activities were calculated as specific activities and used for evaluations.
Human PPARγ2 antagonist activities of the test compounds were evaluated by using a percentage (inhibition) where the specific activity in case only […] was added is regarded as 0% and the specific activity in case the test compound and the stimulant were not added is regarded as 100%. Moreover, the concentration of the test compound indicating the inhibition rate of 50% was calculated as the IC50 value. Also, human PPARγ2 agonist activities of the test compounds were evaluated by using a percentage (activity) where the specific activity when nonsupplemented is regarded as 0% and the specific activity in case only 10 μM stimulant was added is regarded as 100%, from the specific activity in case only the test compound is used.
CV-1 cells were cultured in DMEM medium (manufactured by Invitrogen Corporation) including 10% fetal bovine serum (manufactured by Dainippon Pharmaceutical Co., Ltd.) in 225T-Flask (manufactured by Corning Costar). The cells were detached by 0.5 g/L trypsin-0.2 g/L EDTA (ethylene diamine tetra-acetic acid) (manufactured by Invitrogen Corporation), and then suspended in the DMEM medium including 10% fetal bovine serum to a cell concentration of 2×10^5 cells/mL. Thereafter, the cells were seeded into 96 well plate at 2×10^4 cells/0.1 mL/well, incubated in the 5% CO2 incubator at 37° C. overnight, and then the plasmids prepared by the above-mentioned reference 1a, reference 3a, and reference 4a were transfected into cells by using a lipofectamine reagent (manufactured by Invitrogen Corporation) according to the attached manual.
Namely, after CV-1 cells were cultured overnight, the cells were washed with PBS (100 μL/well). Thereafter the cells were incubated for 5 hours at 37° C./5% CO2 in the MEM medium (manufactured by Invitrogen Corporation) including 430 ng/mL of human PPARγ expression plasmid (pCI-hPPARg2) prepared by the reference 1a, 430 ng/mL of human RXRα expression plasmid (pCI-hRXRa) prepared by the reference 3a, and 140 ng/mL of the reporter plasmid (pGL3-PPRE3-TK) prepared by the reference 4a, 10 ng/mL of phRL-TK vector (manufactured by Promega Corporation) and 2 μL/mL of lipofectamine.
For `COc1cc(Cn2c3ccccc3c3c(OC(C(=O)O)c4ccccc4)cccc32)ccc1OCc1nc(-c2ccco2)oc1C` (racemic) [Example 6, (±)-2-{9-[4-((2-(furan-2-yl)-5-methyl-oxazole-4-yl)methoxy)-3-methoxy-benzyl]-9H-carbazole-4-yloxy}-2-phenylacetic acid], the IC50 was 905 nM.
In the case of `COc1cc(Cn2c3ccccc3c3c(OC(C(=O)O)C(C)C)cccc32)ccc1OCc1nc(-c2ccccc2)oc1C` (racemic) [Example 10, (±)-2-{9-[3-methoxy-4-((5-methyl-2-phenyl-oxazole-4-yl)methoxy)-benzyl]-9H-carbazole-4-yloxy}-3-methyl-butyric acid], the IC50 is reported as 400 nM.
In the case of `CCCC(Oc1cccc2c1c1ccccc1n2Cc1ccc(OCc2nc(-c3ccccc3)oc2C)c(OC)c1)C(=O)O` (racemic) [Example 11, (±)-2-{9-[3-methoxy-4-((5-methyl-2-phenyl-oxazole-4-yl)methoxy)-benzyl]-9H-carbazole-4-yloxy}valeric acid], the IC50 is reported as 281 nM.
With `CCCCC(Oc1cccc2c1c1ccccc1n2Cc1ccc(OCc2nc(-c3ccccc3)oc2C)c(OC)c1)C(=O)O` (racemic) [Example 17, (±)-2-{9-[3-methoxy-4-((5-methyl-2-phenyl-oxazole-4-yl)methoxy)-benzyl]-9H-carbazole-4-yloxy}caproic acid] the IC50 was 320 nM.
In the case of `CCCCCC(Oc1cccc2c1c1ccccc1n2Cc1ccc(OCc2nc(-c3ccccc3)oc2C)c(OC)c1)C(=O)O` (racemic) [Example 18, (±)-2-{9-[3-methoxy-4-((5-methyl-2-phenyl-oxazole-4-yl)methoxy)-benzyl]-9H-carbazole-4-yloxy}heptane acid], the IC50 is reported as 829 nM.
`CCCCCCC(Oc1cccc2c1c1ccccc1n2Cc1ccc(OCc2nc(-c3ccccc3)oc2C)c(OC)c1)C(=O)O` (racemic) [Example 19, (±)-2-{9-[3-methoxy-4-((5-methyl-2-phenyl-oxazole-4-yl)methoxy)-benzyl]-9H-carbazole-4-yloxy}caprylic acid] was tested, and the IC50 was 882 nM.
With `COc1cc(Cn2c3ccccc3c3c(OC(C(=O)O)c4ccccc4)cccc32)ccc1OCc1nc(-c2ccccc2)oc1C` (racemic) [Example 26, (±)-2-{9-[3-methoxy-4-((5-methyl-2-phenyl-oxazole-4-yl)methoxy)-benzyl]-9H-carbazole-4-yloxy}-2-phenylacetic acid] the IC50 was 546 nM.
For `COc1cc(Cn2c3ccccc3c3c(OC(C(=O)O)c4ccccc4)cccc32)ccc1OCc1nc(-c2ccccc2)oc1C` (racemic) [Example 36], the IC50 was 596 nM.
`COc1cc(Cn2c3ccccc3c3c(OC(C(=O)O)c4ccccc4)cccc32)ccc1OCc1nc(-c2ccccc2)oc1C` (single isomer, unassigned) [Example 50, sodium (+)-2-{9-[3-methoxy-4-((5-methyl-2-phenyl-oxazole-4-yl)methoxy)-benzyl]-9H-carbazole-4-yloxy}-2-phenylacetate] showed an IC50 of 471 nM.
Molecule `COc1cc(Cn2c3ccccc3c3c(OC(C(=O)O)c4ccccc4)cccc32)ccc1OCc1nc(-c2ccccc2)oc1C` (single isomer, unassigned) [Example 51, sodium (−)-2-{9-[3-methoxy-4-((5-methyl-2-phenyl-oxazole-4-yl)methoxy)-benzyl]-9H-carbazole-4-yloxy}-2-phenylacetate] has an IC50 of 2190 nM.
With `COc1cc(Cn2c3ccccc3c3c(OCCC(C)C(=O)O)cccc32)ccc1OCc1nc(-c2ccccc2)oc1C` (single isomer, unassigned) [Example 52, sodium (−)-4-{9-[3-methoxy-4-((5-methyl-2-phenyl-oxazole-4-yl)methoxy)-benzyl]-9H-carbazole-4-yloxy}-2-methyl-butyrate] the IC50 was 173 nM.
`COc1cc(Cn2c3ccccc3c3c(OCCC(C)C(=O)O)cccc32)ccc1OCc1nc(-c2ccccc2)oc1C` (single isomer, unassigned) [Example 53, sodium (+)-4-{9-[3-methoxy-4-((5-methyl-2-phenyl-oxazole-4-yl)methoxy)-benzyl]-9H-carbazole-4-yloxy}-2-methyl-butyrate] was tested, and the IC50 was 382 nM.
With `COc1cc(Cn2c3ccccc3c3c(OCC(=O)O)cccc32)ccc1OCc1nc(-c2ccccc2)oc1C` [Example 1, 2-{9-[3-methoxy-4-((5-methyl-2-phenyl-oxazole-4-yl)methoxy)-benzyl]-9H-carbazole-4-yloxy}acetic acid] the IC50 was 3150 nM.
With `COc1cc(Cn2c3ccccc3c3c(OCCCC(=O)O)cccc32)ccc1OCc1nc(-c2ccccc2)oc1C` [Example 12, 4-{9-[3-methoxy-4-((5-methyl-2-phenyl-oxazole-4-yl)methoxy)-benzyl]-9H-carbazole-4-yloxy}butyric acid] the IC50 was 725 nM.
Work on `COc1cc(Cn2c3ccccc3c3c(OCCCCC(=O)O)cccc32)ccc1OCc1nc(-c2ccccc2)oc1C` [Example 20, 5-{9-[3-methoxy-4-((5-methyl-2-phenyl-oxazole-4-yl)methoxy)-benzyl]-9H-carbazole-4-yloxy}valeric acid] yielded an IC50 of 1600 nM.
`COc1cc(Cn2c3ccccc3c3c(OCCCCCC(=O)O)cccc32)ccc1OCc1nc(-c2ccccc2)oc1C` [Example 21, 6-{9-[3-methoxy-4-((5-methyl-2-phenyl-oxazole-4-yl)methoxy)-benzyl]-9H-carbazole-4-yloxy}caproic acid] showed an IC50 of 5060 nM.
`COc1cc(Cn2c3ccccc3c3c(OCC(=O)O)cccc32)ccc1OCc1nc(-c2ccccc2)oc1C` [Example 29] showed an IC50 of 2460 nM.
In the case of `COc1cc(Cn2c3ccccc3c3c(OCCCC(=O)O)cccc32)ccc1OCc1nc(-c2ccccc2)oc1C` [Example 33], the IC50 is reported as 1380 nM.
Work on `COc1cc(Cn2c3ccccc3c3c(OCC(C)(C)C(=O)O)cccc32)ccc1OCc1nc(-c2ccncc2)oc1C` [Example 35] yielded an IC50 of 509 nM.

Same assay, conditions: at 10 μM test compound; CV-1 cells expressing human PPARγ and RXRα; pioglitazone as stimulant; read-out: Human PPARγ antagonist activities, Inhibition % at 10 μM
`COc1cc(Cn2c3ccccc3c3c(OCC(=O)O)cccc32)ccc1OCc1nc(-c2ccco2)oc1C` [Example 2, 2-{9-[4-((2-(furan-2-yl)-5-methyl-oxazole-4-yl)methoxy)-3-methoxy-benzyl]-9H-carbazole-4-yloxy}acetic acid] gave an inhibition at 10 µM of 47.4%.
